Experimental data from patent US11123426B2, “Use of vista agonists and antagonists to suppress or enhance humoral immunity” (THE TRUSTEES OF DARTMOUTH COLLEGE, priority 2014, dated 2021).

Legend:
Assay type in all cases: cell-based, mice
[1] = tested on: Ly6C+CD11b+ MDSCs; assay: 3H-thymidine proliferation assay: MDSC suppression of B-cell responsiveness, w.t. B6 responder spleen cells stimulated with α-CD40 and IL-4; settings: FIG. 2A; MDSCs pretreated one hour with 0.8 mM L-NMMA or 80 ug/ml α-VISTA (13F3); R:S 3:1; three days
Protocol: (§1) 3H-Thymidine incorporation proliferation assays. For responder cells, 5×10^5 non-infected spleen cells, which were either non-fractionated or CD19+ purified, were plated into 96 well flat bottom plates along with 1.6×105 (unless otherwise indicated) CD11b+Ly6G+, or CD11b+Ly6C+, enriched suppressor cells obtained from spleens of 5-w.p.i. LP-BM5 mice of the indicated w.t. B6 or B6 knock-out strains. […] For the percent suppression calculation, first, the percent residual responsiveness (R) was calculated as follows: R=(cpm of co-cultured responder cells and experimental suppressor cells)[…](cpm of co-cultured responder cells and control, non-infected suppressor cells)×100%. Standard deviations of the mean were determined for triplicate wells, and were statistically compared by the two-tailed, two sample equal variance, Student T test. […]

[2] = tested on: Ly6C+CD11b+ MDSCs; assay: 3H-thymidine proliferation assay: MDSC suppression of T-cell responsiveness, w.t. B6 responder spleen cells stimulated with Con A; settings: FIG. 2B, MDSCs pretreated with 0.8 mM L-NMMA or 80 ug/ml α-VISTA (13F3), R:S 3:1, three days
Protocol: as §1

[3] = tested on: Ly6C+CD11b+ MDSCs; assay: 3H-thymidine proliferation assay: MDSC suppression of B-cell responsiveness with VISTA−/− responder spleen cells (α-CD40 and IL-4); settings: FIG. 5A
Protocol: as §1
This example relates to the experiments in FIG. 5. […] The % suppression was calculated for both (A) and (B) by cpm responder 3H thymidine incorporation. […]

[4] = tested on: monocytic MDSCs (Ly6C+CD11b+); assay: CFSE dilution proliferation assay of CD19+ B cells with monocytic MDSCs; settings: FIG. 4, w.t. MDSCs, CFSE labeled VISTA−/− responders
Protocol: CFSE dilution proliferation assays. Naïve responder splenocytes were labeled with 5.iM CFSE (Cell trace, CFSE proliferation Kit, Molecular Probes, Eugene, Oreg.) in PBS/0.5% BSA for 10 minutes at 37° C. followed by the addition of cold 10% FBS in RPM1 for 5 minutes on ice. After three cold 10% FCS/RPMI washes, cell cultures were set up in the same manner as that for the 3H-thymidine incorporation proliferation assays described above. On culture day 4, wells were stained with monoclonal antibody (mAb): ct-CD19-PerCP (Biolegend, San Diego, Calif.) and were analyzed on a FACSCalibur flow cytometer (BD bioscience, San Jose, Calif.).
This example relates to the experiments in FIG. 4. In these experiments purified monocytic MDSCs (Ly6C+CD11b+) from 5 week LP-BM5 infected mice of the indicated strains, show differing patterns of suppression of naïve VISTA−/− spleen cell proliferation as assessed by flow cytometry. CFSE labeled VISTA−/− responder cells were cultured for […] in the presence (+) or absence (−) of ct-CD40+ IL-4, and with or without monocytic MDSCs (a) (−); (b) (+) (grey shaded curves); (c) (+), W.t. MDSCs (in black open curves); (d) (+), DNMMA treated W.t. […] MDSCs; Cells from all cultures were stained at the termination of a four day incubation, with ct-CD19 fluorochrome conjugated mAb and CFSE dilution was also assessed by FACS. […]

SMILES: CNC(=N)NCCC[C@H](N)C(=O)O [LNMMA, NG-monomethyl-L-Arginine]
- blocking of MDSC suppression of B-cell responsiveness [1]: ~50%
- blocking of MDSC suppression of T-cell responsiveness [2]: essentially completely dependent on iNOS/NO
- extent of blocking of VISTA−/− MDSC suppression of B-cell responsiveness ([3]; MDSC of VISTA−/− origin): ~100%
- blocking of w.t. MDSC suppression of B-cell responsiveness ([3]; w.t. MDSC): partially blocked
- restoration of B-cell proliferation curve towards control B cells stimulated in absence of MDSCs (CFSE) [4]: partially restored
